In brackets after ≈: the same amount, converted by molar mass. Several values for one entry are separate records, joined by “and”; a condition that tells them apart may be missing. Identical values can stand only once.
Experiments:
[1] = tested on: Human Immunodificiency Virus (HIV-1); test: HIV-1 antigen inhibition in H9 cells; assay type: cell-based, HIV-1 (HTLV-IIIB); conditions: Human immunodeficiency virus 1, HIV-1, H9 cells; for IC50: HIV antigen levels
Description: Uninfected H9 cells at 4×10^5 viable cells/ml were infected with approximately 100 viral infectious units (ifu) for 2 hrs at 37° C. The viral infectious dose (ifu) was determined by the tissue culture infectious dose (TCID50) method for each stock of HIV-1 (HTLV-IIIB) and HIV-2. Cells were washed three times to remove residual virus, then resuspended in RPMI-1640 growth medium containing test compound at various concentrations, then transferred to 24 well tissue culture plates and grown at 5% CO2 at 37° C. Infected cells in media containing no drug were run simultaneously as a control. Aliquots of culture supernatants were removed at 4, 6 and 10 days and monitored for HIV antigen levels by the Abbott HIV 1 antigen enzyme immunoassay (HIVAG-1). Cell viability was also determined at these time points and cells were refed with media containing test compound (except for control wells). Anti-HIV activity is reported as the concentration of compound causing a 50% inhibition (IC50) in HIV antigen levels versus infected cells without test compound.

[2] = tested on: Human Immunodeficiency Virus (HIV-2); test: anti-HIV-2 protection of ATH8 cells (method of Mitsuya and Broder); assay type: cell-based; conditions: ATH-8, HIV-2, ATH8 cells, read-out: Protective Effect
Excerpt: (§1) The method of Mitsuya and Broder (AIDS: Modern Concepts and Therapeutic Challenges; Broder, S. ED.; Marcel Dekker, Inc.; New York, 1987; Chapter 18) was used to determine the in vitro anti-HIV-1 and anti-HIV-2 activity in ATH8 cells of some compounds of the invention. The results of the test are expressed as the percentage of ATH8 cells that were protected from the cytopathogenic effects of HIV at various concentrations of the compound of the invention.

[3] = tested on: HCT8: Adenocarcinoma, ileocecal; test: cytotoxic activity against cultured tumor cells, HCT-8; assay type: cell-based; conditions: Homo sapiens, 72 h; HCT-8, 3 days, MTT
[4] = cytotoxicity in uninfected PHA-stimulated human PBM cells; assay type: cell-based; conditions: uninfected PBMC, 6 days, read-out: Cytotoxicity in PBMC IC50
Description: Human peripheral blood mononuclear cells (PBMC) from healthy HIV-1 seronegative and hepatitis B virus seroneqative donors were isolated by Ficoll-Hypague discontinuous gradient centrifugation at 1,000×g for 30 minutes, washed twice in phosphate buffered saline (pH 7.2; PBS), and pelleted at 300×g for 10 minutes. Before infection, the cells were stimulated by phytohemagglutinin (PHA) at a concentration of 16.7 ug/ml for three days in RPMI 1640 medium supplemented with 15% heat-inactivated fetal calf serum, 1.5 mM L-glutamine, penicillin (100 U/ml), streptomycin (100 ug/ml) and 4 mM sodium bicarbonate buffer.
The test compounds were evaluated for their potential toxic effects on uninfected PHA-stimulated human PBM cells. The cells were cultured with and without test compound for 6 days at which time aliquots were counted for cell viability.

[5] = cytotoxicity in ATH8 cells (method of Mitsuya and Broder); assay type: cell-based; conditions: human
Excerpt: The method of Mitsuya and Broder (AIDS: Modern Concepts and Therapeutic Challenges; Broder, S. ED.; Marcel Dekker, Inc.; New York, 1987; Chapter 18) was used to determine the in vitro anti-HIV-1 and anti-HIV-2 activity in ATH8 cells of some compounds of the invention. […]

[6] = tested on: Herpes simplex type 2 (HSV-2) strain MS; test: CPE-inhibition assay, HSV-2 strain MS in Vero cells; conditions: for EC50: Human alphaherpesvirus 2, Vero, read-out: ID50 (minimum drug concentration that inhibited the CPE by 50%), HSV-2 (MS), Vero
[7] = tested on: P388D1: Lymphocytic Leukemia; test: cytotoxic activity against cultured tumor cells, P388-D1; assay type: cell-based; conditions: Mus musculus, P388D1, 72 h; P388-D1, 3 days, MTT
[8] = tested on: Human Immunodeficiency Virus (HIV-1); test: anti-HIV-1 protection of ATH8 cells (method of Mitsuya and Broder); assay type: cell-based; conditions: Human immunodeficiency virus 1, ATH-8, HIV-1, ATH8 cells, read-out: Protective Effect
Excerpt: as §1

[9] = tested on: Herpes simplex type 1 (HSV-1) strain E-377; test: CPE-inhibition assay, HSV-1 strain E-377 in Vero cells
[10] = tested on: Human Cytomegalovirus (HCMV); test: HCMV virus yield reduction assay in MRC5 cells; assay type: cell-based, Human cytomegalovirus (strain AD169)
Description: Human diploid embryonic lung (MRC5) cells were grown in 35 mm wells of 6-well tissue culture plates. Subconfluent cell monolayers were rinsed with phosphate buffered saline (PBS) and were exposed to 0.5 ml/well of HCMV (strain AD169) suspension for 1.5 hours at 37° C. The virus suspension was diluted in MEM+2% fetal bovine serum (FBS) to yield a multiplicity of infection (MOI) of approximately 0.1 plaque forming units (PFU)/cell. Following the virus adsorption period, the inocula were removed and infected cell layers were rinsed with PBS. Aliquots (2.0 ml) of each test drug concentration (dissolved in MEM supplemented with 2% FBS) were dispensed into triplicate cell cultures: two virus infected cultures and one uninfected cytotoxicity control culture (exposed to medium without virus for 1.5 hours). Untreated virus infected control cultures and untreated, uninfected cell control cultures were fed with medium alone.
All cell culture fluids were replaced with fresh drug and medium 48 hours postinfection (p.i.).
On Day 6 p.i., the cell layers were examined microscopically for cytopathogenic effect (CPE) and drug cytotoxicity. The test and virus control cultures were then harvested by subjecting the cell layers to one cycle of freeze-thawing.
The harvested test and virus control samples were thawed and the infectious virus yield was determined by plaque assay in MRC5 cells grown in 12-well cluster plates. Inhibition of HCMV replication by each test compound was determined by comparing the progeny virus yields in the drug-treated cultures with the progeny virus yield in the untreated, virus infected control cultures.

[11] = Human betaherpesvirus 5, 144 h, 1.0 ug/ml
[12] = Human betaherpesvirus 5, 144 h, 3.2 ug/ml
[13] = Human betaherpesvirus 5, 144 h, 10 ug/ml
[14] = Human betaherpesvirus 5, 144 h, 32 ug/ml

SMILES	inhibition at 0.625 µM [1]	inhibition at 2.5 µM [1]	inhibition at 10 µM [1]	IC50 [1]	inhibition at 1 µM [2]	inhibition at 10 µM [2]	IC50 [3]	CC50 at 144 h [4]	cytotoxicity at 1 µM ([5]; HIV-1 experiment)	cytotoxicity at 10 µM ([5]; HIV-1 experiment)	cytotoxicity at 1 µM ([5]; HIV-2 experiment)	cytotoxicity at 10 µM ([5]; HIV-2 experiment)	EC50 [6]	IC50 [7]	inhibition at 1 µM [8]	inhibition at 10 µM [8]	TI (Therapeutic Index, MTC/ID50) ([9]; HSV-1 (E-377), Vero)	HCMV yield ([10]; 1.0 ug/ml)	HCMV yield ([10]; 3.2 ug/ml)	HCMV yield ([10]; 10 ug/ml)	other results
Nc1nc2c(ncn2C2CC(CO)C2CO)c(=O)[nH]1 (stereo not drawn) [Example 1I, 9-(2',3'-Bis(hydroxymethyl)cyclobutyl)guanine]	19%	75%	88%	1.1 µM	24%	65%	> 100 µg/mL	38.8 µM	0%	0%	11%	11%	6.4 µg/mL (≈ 24.1 µM)	2.8 µg/mL (≈ 10.6 µM)	51%	90%	213 and 129	3.12 log10 PFU/ml	2.43 log10 PFU/ml	1.63 log10 PFU/ml	inhibition at 0.312 µM ([1]; 0.312 uM): 0%; inhibition at 1.25 µM ([1]; 1.25 uM): 63%; TI (Therapeutic Index, MTC/ID50) ([6]; HSV-2 (MS), Vero): 50 and 30; EC50 ([9]; Human alphaherpesvirus 1, Vero, read-out: ID50 (minimum drug concentration that inhibited the CPE by 50%), HSV-1 (E-377), Vero): 1.5 µg/mL (≈ 5.65 µM); HCMV yield ([10]; 32 ug/ml): < 0.6 log10 PFU/ml; log reduction at 1 µg/mL [10, 11]: 1.15; log reduction at 3.2 µg/mL [10, 12]: 1.84; log reduction at 10 µg/mL [10, 13]: 2.64; log reduction at 32 µg/mL [10, 14]: > 3.7
Nc1ncnc2c1ncn2C1CC(CO)C1CO (stereo not drawn) [Example 4C, 9-(2',3'-Bis(hydroxymethyl)cyclobutyl)adenine]	0%	62%	98%	2.1 µM	33%	70%	71.4 µg/mL (≈ 286 µM)	23 µM	12%	33%	9%	15%	18.1 µg/mL (≈ 72.6 µM)	0.64 µg/mL (≈ 2.57 µM)	48%	63%	3.7 and > 2.2	2.6 log10 PFU/ml	< 0.6 log10 PFU/ml	< 0.6 log10 PFU/ml	inhibition at 5 µM ([1]; 5 uM): 96%; cytotoxicity at 100 µM ([5]; HIV-1 experiment, 100 uM): 34%; inhibition at 100 µM ([8]; 100 uM): 76%; VR (Virus Rating) ([9]; HSV-1 (E-377), Vero, >1.0 definite, 0.5-0.9 marginal to moderate, <0.5 no significant activity): 2.1; HCMV yield ([10]; 0.32 ug/ml): 3.3 log10 PFU/ml; HCMV yield ([10]; 32 ug/ml): < 0.6 log10 PFU/ml; log reduction at 0.32 µg/mL ([10]; Human betaherpesvirus 5, 144 h, 0.32 ug/ml): 1.4; log reduction at 1 µg/mL [10, 11]: 2.1; log reduction at 3.2 µg/mL [10, 12]: > 4.1; log reduction at 10 µg/mL [10, 13]: > 4.1; log reduction at 32 µg/mL [10, 14]: > 4.1

— US5153352A, “Process for preparation of intermediates of carbocyclic nucleoside analogs” (priority 1990, dated 1992)
